Laboratory results taken from PubChem BioAssay AID248 (DTP/NCI, 2004).
Toxic doses and inconclusive results are not listed. Rule as the data show it: active = T/C of 150% or more; inactive = T/C below 125%.

Test system: L1210 leukemia ip in BDF1 mice, survival T/C
Test: NCI In Vivo Anticancer Drug Screen. Data for tumor model L1210 Leukemia (intraperitoneal) in B6D2F1 (BDF1) mice
Conditions: endpoint: mean survival time, higher = longer survival
Outline: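 Ratio derived from survival: compound-dosed mice over vehicle-dosed mice, all bearing a transplantable tumor.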

[1] = dose: 100.0 mg/kg/injection, schedule: Q04DX002 (ip), vehicle: Klucel (hydroxypropylcellulose) (HPC)
[2] = dose: 200.0 mg/kg/injection, schedule: Q04DX002 (ip), vehicle: Klucel (hydroxypropylcellulose) (HPC)
[3] = dose: 100.0 mg/kg/injection, schedule: Q04DX003 (ip), vehicle: Klucel (hydroxypropylcellulose) (HPC)
[4] = dose: 200.0 mg/kg/injection, schedule: Q04DX003 (ip), vehicle: Klucel (hydroxypropylcellulose) (HPC)
[5] = dose: 400.0 mg/kg/injection, schedule: Q04DX003 (ip), vehicle: Klucel (hydroxypropylcellulose) (HPC)
[6] = dose: 100.0 mg/kg/injection, schedule: Q01DX001 (ip), vehicle: saline
[7] = dose: 200.0 mg/kg/injection, schedule: Q01DX001 (ip), vehicle: saline
[8] = dose: 400.0 mg/kg/injection, schedule: Q01DX001 (ip), vehicle: saline
[9] = dose: 400.0 mg/kg/injection, schedule: Q04DX002 (ip), vehicle: Klucel (hydroxypropylcellulose) (HPC)
[10] = dose: 100.0 mg/kg/injection, schedule: Q04DX003 (ip), vehicle: saline with Tween-80

Measured: T/C

N#CC(Nc1cc(=O)[nH]c(=O)[nH]1)c1ccccc1 (stereo unspecified)
inactive: [1] 105 % of control | [2] 108 % of control

Cc1ncc(CO)c(/C=N/N=C(N)N)c1O
inactive: dose: 30.0 mg/kg/injection, schedule: Q01DX Z (oral), vehicle: methylcellulose (MC) 92 % of control | dose: 120.0 mg/kg/injection, schedule: Q01DX Z (oral), vehicle: methylcellulose (MC) 94 % of control | dose: 240.0 mg/kg/injection, schedule: Q01DX Z (oral), vehicle: methylcellulose (MC) 103 % of control

CC(=O)CC(=O)c1cc(C(C)=O)c(O)c(C(C)=O)c1
inactive: dose: 50.0 mg/kg/injection, schedule: Q04DX003 (ip), vehicle: Klucel (hydroxypropylcellulose) (HPC) 101 % of control | [3] 108 % of control | [4] 103 % of control | [5] 101 % of control

CCOC(=O)C(Cc1ccccc1)NC(=O)N(CCCl)CCCl (stereo unspecified)
inactive: dose: 62.5 mg/kg/injection, schedule: Q01DX Z (ip), vehicle: water 97 % of control | dose: 125.0 mg/kg/injection, schedule: Q01DX Z (ip), vehicle: water 95 % of control | dose: 250.0 mg/kg/injection, schedule: Q01DX Z (ip), vehicle: water 106 % of control

CC(C)(C)C1CCS(=O)(=O)CC1.[Cl][Hg][Cl]
inactive: dose: 0.25 mg/kg/injection, schedule: Q01DX009 (ip), vehicle: saline 97 % of control | dose: 0.5 mg/kg/injection, schedule: Q01DX009 (ip), vehicle: saline 98 % of control | dose: 1.0 mg/kg/injection, schedule: Q01DX009 (ip), vehicle: saline 94 % of control

O=C(Nc1ccc(O)cc1)Nc1ccc(O)cc1
inactive: dose: 37.5 mg/kg/injection, schedule: Q01DX Z (ip), vehicle: carboxymethylcellulose (CMC) 103 % of control | dose: 53.0 mg/kg/injection, schedule: Q01DX Z (ip), vehicle: carboxymethylcellulose (CMC) 92 % of control | dose: 53.0 mg/kg/injection, schedule: Q01DX Z (ip), vehicle: other 105 % of control | dose: 75.0 mg/kg/injection, schedule: Q01DX Z (ip), vehicle: carboxymethylcellulose (CMC) 115 % of control | dose: 80.0 mg/kg/injection, schedule: Q01DX Z (ip), vehicle: carboxymethylcellulose (CMC) 93 % of control | dose: 80.0 mg/kg/injection, schedule: Q01DX Z (ip), vehicle: other 102 % of control | dose: 120.0 mg/kg/injection, schedule: Q01DX Z (ip), vehicle: carboxymethylcellulose (CMC) 92 % of control | dose: 120.0 mg/kg/injection, schedule: Q01DX Z (ip), vehicle: other 103 % of control | dose: 150.0 mg/kg/injection, schedule: Q01DX Z (ip), vehicle: carboxymethylcellulose (CMC) 103 % of control | dose: 180.0 mg/kg/injection, schedule: Q01DX Z (ip), vehicle: carboxymethylcellulose (CMC) 89 % of control | dose: 180.0 mg/kg/injection, schedule: Q01DX Z (ip), vehicle: other 102 % of control | dose: 270.0 mg/kg/injection, schedule: Q01DX Z (ip), vehicle: other 103 % of control | dose: 300.0 mg/kg/injection, schedule: Q01DX Z (ip), vehicle: carboxymethylcellulose (CMC) 98 % of control | dose: 404.0 mg/kg/injection, schedule: Q01DX Z (ip), vehicle: other 105 % of control

CCOc1ccc(NC(=O)OCCCl)cc1
inactive: dose: 75.0 mg/kg/injection, schedule: Q04DX002 (ip), vehicle: Klucel (hydroxypropylcellulose) (HPC) 105 % of control | dose: 150.0 mg/kg/injection, schedule: Q04DX002 (ip), vehicle: Klucel (hydroxypropylcellulose) (HPC) 105 % of control | dose: 300.0 mg/kg/injection, schedule: Q04DX002 (ip), vehicle: Klucel (hydroxypropylcellulose) (HPC) 101 % of control

CC(=O)Nc1ccc(S(=O)(=O)C(Cl)c2ccccc2)cc1 (stereo unspecified)
inactive: [6] 103 % of control | [7] 103 % of control | [8] 98 % of control

CC(C)=N/N=C(/C(=O)c1ccccc1)c1ccccc1
inactive: [6] 109 % of control | [7] 109 % of control | [8] 97 % of control

CC(C)CCC(CCC(C)C)NCC(C)OC(=O)c1ccc(N)cc1 (stereo unspecified)
inactive: dose: 75.0 mg/kg/injection, schedule: Q01DX001 (ip), vehicle: carboxymethylcellulose (CMC) 93 % of control | dose: 150.0 mg/kg/injection, schedule: Q01DX001 (ip), vehicle: carboxymethylcellulose (CMC) 89 % of control

CCC(=O)Nc1cc(Cl)ccc1C
inactive: dose: 100.0 mg/kg/injection, schedule: Q01DX009 (ip), vehicle: Klucel (hydroxypropylcellulose) (HPC) 98 % of control | [3] 102 % of control | dose: 200.0 mg/kg/injection, schedule: Q01DX009 (ip), vehicle: Klucel (hydroxypropylcellulose) (HPC) 98 % of control | [4] 102 % of control | dose: 400.0 mg/kg/injection, schedule: Q01DX009 (ip), vehicle: Klucel (hydroxypropylcellulose) (HPC) 95 % of control | [5] 102 % of control

CNC(=O)C1C(c2ccccc2)C1c1ccc(C)cc1 (stereo unspecified)
inactive: [1] 88 % of control | [2] 92 % of control | [9] 103 % of control

COC(=O)/C(=C1/OC(=O)C(c2ccccc2)=C1O)c1ccccc1
inactive: dose: 25.0 mg/kg/injection, schedule: Q01DX009 (ip), vehicle: saline with Tween-80 93 % of control | dose: 50.0 mg/kg/injection, schedule: Q01DX009 (ip), vehicle: saline with Tween-80 95 % of control | dose: 100.0 mg/kg/injection, schedule: Q01DX009 (ip), vehicle: saline with Tween-80 93 % of control | [10] 100 % of control

CC(=O)SCCCCl
inactive: dose: 100.0 mg/kg/injection, schedule: Q04DX003 (ip), vehicle: saline 105 % of control | dose: 200.0 mg/kg/injection, schedule: Q04DX003 (ip), vehicle: saline 101 % of control | dose: 400.0 mg/kg/injection, schedule: Q04DX003 (ip), vehicle: saline 102 % of control

CNC(=O)Oc1ccc([N+](=O)[O-])cc1
inactive: dose: 75.0 mg/kg/injection, schedule: Q01DX001 (ip), vehicle: other 101 % of control | dose: 150.0 mg/kg/injection, schedule: Q01DX001 (ip), vehicle: other 101 % of control | dose: 300.0 mg/kg/injection, schedule: Q01DX001 (ip), vehicle: other 104 % of control

CNNC(=O)NC
inactive: dose: 50.0 mg/kg/injection, schedule: Q01DX009 (ip), vehicle: saline 109 % of control | dose: 100.0 mg/kg/injection, schedule: Q01DX009 (ip), vehicle: saline 94 % of control

CCCCn1c2ccccc2c2ccccc21
inactive: dose: 50.0 mg/kg/injection, schedule: Q04DX003 (ip), vehicle: saline with Tween-80 96 % of control | [10] 96 % of control | dose: 200.0 mg/kg/injection, schedule: Q04DX003 (ip), vehicle: saline with Tween-80 102 % of control

OC1C(OCc2ccccc2)OC(COCc2ccccc2)C(OC2OC(COCc3ccccc3)C(OCc3ccccc3)C(OCc3ccccc3)C2OCc2ccccc2)C1OCc1ccccc1 (stereo unspecified)
inactive: dose: 200.0 mg/kg/injection, schedule: Q01DX009 (ip), vehicle: alcohol 94 % of control | dose: 400.0 mg/kg/injection, schedule: Q01DX009 (ip), vehicle: alcohol 86 % of control

CCCCCC(CN(C)C)C(O)CCc1ccc(Cl)c(Cl)c1 (stereo unspecified)
inactive: dose: 25.0 mg/kg/injection, schedule: Q04DX002 (ip), vehicle: Klucel (hydroxypropylcellulose) (HPC) 93 % of control | dose: 50.0 mg/kg/injection, schedule: Q04DX002 (ip), vehicle: Klucel (hydroxypropylcellulose) (HPC) 93 % of control | [1] 104 % of control | [2] 88 % of control | [9] 117 % of control
